smiles,measurement,setting,value
CCc1cccc(CC)c1/N=C(C)/C=C(/C)Nc1c(CC)cccc1CC,solubility (mole fraction),"in THF, 268.15 K",0.134
same,solubility (mole fraction),"in THF, 273.15 K",0.147
same,solubility (mole fraction),"in THF, 278.15 K",0.164
same,solubility (mole fraction),"in THF, 283.15 K",0.186
same,solubility (mole fraction),"in THF, 288.15 K",0.213
same,solubility (mole fraction),"in THF, 293.15 K",0.246
same,solubility (mole fraction),"in THF, 298.15 K",0.282
same,solubility (mole fraction),"in THF, 303.15 K",0.319
same,solubility (mole fraction),"in diethyl ether, 268.15 K",0.0732
same,solubility (mole fraction),"in diethyl ether, 273.15 K",0.0961
same,solubility (mole fraction),"in diethyl ether, 278.15 K",0.123
same,solubility (mole fraction),"in diethyl ether, 283.15 K",0.152
same,solubility (mole fraction),"in diethyl ether, 288.15 K",0.184
same,solubility (mole fraction),"in diethyl ether, 293.15 K",0.215
same,solubility (mole fraction),"in diethyl ether, 298.15 K",0.248
same,solubility (mole fraction),"in diethyl ether, 303.15 K",0.283
same,solubility (mole fraction),"in ethanol, 268.15 K",0.00158
same,solubility (mole fraction),"in ethanol, 273.15 K",0.00186
same,solubility (mole fraction),"in ethanol, 278.15 K",0.0022
same,solubility (mole fraction),"in ethanol, 283.15 K",0.00258
same,solubility (mole fraction),"in ethanol, 288.15 K",0.00315
same,solubility (mole fraction),"in ethanol, 293.15 K",0.00369
same,solubility (mole fraction),"in ethanol, 298.15 K",0.00476
same,solubility (mole fraction),"in ethanol, 303.15 K",0.00595
same,solubility (mole fraction),"in ethanol, 308.15 K",0.00738
same,solubility (mole fraction),"in ethanol, 313.15 K",0.00964
same,solubility (mole fraction),"in methanol, 268.15 K",0.0003
same,solubility (mole fraction),"in methanol, 273.15 K",0.00037
same,solubility (mole fraction),"in methanol, 278.15 K",0.00047
same,solubility (mole fraction),"in methanol, 283.15 K",0.00058
same,solubility (mole fraction),"in methanol, 288.15 K",0.00072
same,solubility (mole fraction),"in methanol, 293.15 K",0.00089
same,solubility (mole fraction),"in methanol, 298.15 K",0.0011
same,solubility (mole fraction),"in methanol, 303.15 K",0.00138
same,solubility (mole fraction),"in methanol, 308.15 K",0.00173
same,solubility (mole fraction),"in methanol, 313.15 K",0.0022
same,solubility (mole fraction),"in n-hexane, 268.15 K",0.0373
same,solubility (mole fraction),"in n-hexane, 273.15 K",0.0478
same,solubility (mole fraction),"in n-hexane, 278.15 K",0.0609
same,solubility (mole fraction),"in n-hexane, 283.15 K",0.0769
same,solubility (mole fraction),"in n-hexane, 288.15 K",0.0964
same,solubility (mole fraction),"in n-hexane, 293.15 K",0.12
same,solubility (mole fraction),"in n-hexane, 298.15 K",0.148
same,solubility (mole fraction),"in n-hexane, 303.15 K",0.182
same,solubility (mole fraction),"in n-hexane, 308.15 K",0.223
same,solubility (mole fraction),"in n-hexane, 313.15 K",0.271
same,solubility (mole fraction),"in toluene, 268.15 K",0.147
same,solubility (mole fraction),"in toluene, 273.15 K",0.162
same,solubility (mole fraction),"in toluene, 278.15 K",0.178
same,solubility (mole fraction),"in toluene, 283.15 K",0.196
same,solubility (mole fraction),"in toluene, 288.15 K",0.216
same,solubility (mole fraction),"in toluene, 293.15 K",0.236
same,solubility (mole fraction),"in toluene, 298.15 K",0.259
same,solubility (mole fraction),"in toluene, 303.15 K",0.284
same,solubility (mole fraction),"in toluene, 308.15 K",0.312
same,solubility (mole fraction),"in toluene, 313.15 K",0.342

# Source: BigSolDB 2.1
